Measurements as given in PubChem BioAssay (NCI).
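48-hour exposure; five concentrations; linearly interpolated endpoints. GI50 is the concentration that inhibits growth by half. TGI: total growth inhibition.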

Legend:
Assay in all cases: NCI-60 cell line screen, 48 h
[1] = test system: MOLT-4 leukemia
[2] = test system: NCI-H226 lung
[3] = test system: NCI-H23 lung
[4] = test system: NCI-H460 lung
[5] = test system: NCI/ADR-RES ovarian
[6] = test system: OVCAR-3 ovarian
[7] = test system: OVCAR-4 ovarian
[8] = test system: OVCAR-5 ovarian
[9] = test system: OVCAR-8 ovarian
[10] = test system: PC-3 prostate
[11] = test system: RPMI-8226 leukemia
[12] = test system: RXF 393 renal
[13] = test system: SF-268 CNS
[14] = test system: SF-295 CNS
[15] = test system: SF-539 CNS
[16] = test system: SK-MEL-28 melanoma
[17] = test system: SK-MEL-5 melanoma
[18] = test system: SK-OV-3 ovarian
[19] = test system: SN12C renal
[20] = test system: SNB-75 CNS
[21] = test system: SR leukemia
[22] = test system: SW-620 colon
[23] = test system: T-47D breast
[24] = test system: U251 CNS
[25] = test system: UACC-257 melanoma
[26] = test system: UACC-62 melanoma
[27] = test system: UO-31 renal

## NCCOCCOCCNc1nc(Cc2ccccc2)nc(NCCCN2CCCC2=O)n1
[1]
  TGI: > 100 µM
[2]
  GI50: > 100 µM
  TGI: > 100 µM
[3]
  GI50: > 100 µM
  TGI: > 100 µM
[4]
  GI50: > 100 µM
  TGI: > 100 µM
[5]
  GI50: > 100 µM
  TGI: > 100 µM
[6]
  GI50: > 100 µM
  TGI: > 100 µM
[7]
  GI50: > 100 µM
  TGI: > 100 µM
[8]
  GI50: > 100 µM
  TGI: > 100 µM
[9]
  GI50: > 100 µM
  TGI: > 100 µM
[10]
  GI50: > 100 µM
  TGI: > 100 µM
[11]
  GI50: > 100 µM
  TGI: > 100 µM
[12]
  GI50: > 100 µM
  TGI: > 100 µM
[13]
  GI50: > 100 µM
  TGI: > 100 µM
[14]
  GI50: > 100 µM
  TGI: > 100 µM
[15]
  GI50: > 100 µM
  TGI: > 100 µM
[16]
  GI50: > 100 µM
  TGI: > 100 µM
[17]
  GI50: > 100 µM
  TGI: > 100 µM
[18]
  GI50: > 100 µM
  TGI: > 100 µM
[19]
  GI50: > 100 µM
  TGI: > 100 µM
[20]
  GI50: > 100 µM
  TGI: > 100 µM
[21]
  GI50: > 100 µM
  TGI: > 100 µM
[22]
  GI50: > 100 µM
  TGI: > 100 µM
[23]
  GI50: > 100 µM
  TGI: > 100 µM
[24]
  GI50: > 100 µM
  TGI: > 100 µM
[25]
  GI50: > 100 µM
  TGI: > 100 µM
[26]
  GI50: > 100 µM
  TGI: > 100 µM
[27]
  GI50: > 100 µM
  TGI: > 100 µM
